Read-outs that look alike come from different tables or passages of the source.
Assays:
[1] = target: α4β2 nAChR (Rattus norvegicus (Rat), UniProt P09483+P12390); experiment: biochemical; assay type: binding; conditions: for Ki: read-out: Ki α4β2; for Ki Ratio α3β4/α4β2: selectivity for α4β2 over α3β4; for Ki Ratio α7/α4β2: selectivity for α4β2 over α7
Method: (§1) In Vitro Binding Affinities for nAChR Subtypes. […] To determine selectivities of these compounds in binding assays among the three predominant nAChR subtypes, α3β4, α4β2 and α7, the ratios of Ki values (α3β4/α4β2 and α7/α4β2) were determined.
(§2) Cell Lines and Cell Culture. The cell lines expressing defined rat nAChR subtypes were established previously by stably transfecting HEK 293 cells with rat nAChR subunit genes. The cell line expressing human α4β2 nAChRs, YXα4β2H1, was established recently. These cell lines were maintained in minimum essential medium (MEM) supplemented with 10% fetal bovine serum, 100 units/mL penicillin G, […] and selective antibiotics at 37° C. with 5% CO2 in a humidified incubator. Fetal bovine serum was provided by Gemini Bio-Products (Woodland, Calif.). Tissue culture medium and antibiotics were obtained from Invitrogen Corporation (Carlsbad, Calif.), unless otherwise stated.
(§3) Briefly, cultured cells at >80% confluence were removed from their flasks (80 cm^2) with a disposable cell scraper and placed in 10 mL of 50 mM Tris.HCl buffer (pH 7.4, 4° C.). The cell suspension was centrifuged at 10,000×g for 5 min and the pellet was collected. The cell pellet was then homogenized in 10 mL buffer with a polytron homogenizer and centrifuged at 36,000 g for 10 min at 4° C. The membrane pellet was resuspended in fresh buffer, and aliquots of the membrane preparation were used for binding assays. […] Bound and free ligands were separated by vacuum filtration through Whatman GF/C filters treated with 0.5% polyethylenimine. The filter-retained radioactivity was measured by liquid scintillation counting. Specific binding was defined as the difference between total binding and nonspecific binding. Data from competition binding assays were analyzed using Prism 5 (GraphPad Software, San Diego, Calif.).
(§4) Pharmacological Properties. We measured the in vitro binding affinities of the ligands for defined receptor subtypes (α2β2, α2β4, α3β2, α3β4, α4β2, α4β4, α6β2, α6β4, and α7) expressed in stably transfected cell lines. […] Rat forebrain homogenates were included to allow comparison between the heterologous and native α4β2 and α7 nAChRs. See Table 1 for binding affinity values (Ki) of the ligands at the three major nAChR subtypes (α3β4. α4β2 and α7).

[2] = target: α3β4 nAChR (Rattus norvegicus (Rat), UniProt P04757+P12392); experiment: [3H]-epibatidine competition binding, α3β4
Method: as §1, §2, §3, §4

[3] = target: human α4β2 nAChRs (Homo sapiens (Human), UniProt P17787+P43681); experiment: 86Rb+ efflux assay (activation and desensitization), α4β2; assay type: cell-based; conditions: for IC50: desensitization; for EC50: agonist activity; for Emax: read-out: Emax α4β2 nAChRs
Method: (§5) In Vitro Effects on nAChR Function. […] Their agonist activities were assessed by measuring stimulated ^86Rb^+ efflux from stably transfected cells, either expressing human α4β2 nAChRs or rat α3β4 receptors.
as §2
(§6) ^86Rb^+ Efflux Assay. Functional properties of compounds at nAChRs expressed in the transfected cells were measured using ^86Rb^+ efflux assays as described previously. In brief, cells expressing human α4β2 or rat α3β4 nAChRs were plated into 24-well plates coated with poly-D-lysine. The plated cells were grown at 37° C. for 18 to 24 hour to reach 85-95% confluence. The cells were then incubated in growth medium (0.5 mL/well) containing ^86Rb^+ (2 μCi/mL) for 4 hour at 37° C. The loading mixture was then aspirated, and the cells were washed four times with 1 mL buffer (15 mM HEPES, 140 mM NaCl, 2 mM KCl, 1 mM MgSO4, 1.8 mM CaCl2, 11 mM Glucose, pH 7.4). One mL of buffer with or without compounds to be tested was then added to each well. After incubation for 2 min, the assay buffer was collected for measurements of ^86Rb^+ released from the cells. Cells were then lysed by adding 1 mL of 100 mM NaOH to each well, and the lysate was collected for determination of the amount of ^86Rb^+ that was in the cells at the end of the efflux assay. Radioactivity of assay samples and lysates was measured by liquid scintillation counting. Total loading (cpm) was calculated as the sum of the assay sample and the lysate of each well. The amount of ^86Rb^+ efflux was expressed as a percentage of ^86Rb^+ loaded. […] For obtaining EC50 and Emax values, stimulation curves were constructed in which 8 different concentrations of a ligand were included in the assay. […] EC50, Emax and IC50(10′) values were determined by nonlinear least-squares regression analyses (GraphPad, San Diego, Calif.).
(§7) The functional properties of the ligands were determined by ^86Rb^+ efflux assays in cells expressing α3β4 and α4β2 nAChR subtypes. The functional activity of each ligand was measured for its agonism, antagonism and desensitization ability. Agonist activity for each of the ligands was tested at eight different concentrations. […] The full concentration-effect curves generated potency (EC50) and efficacy (Emax) of each ligand. […] We tested each ligand for antagonist activity at eight concentrations. The potency (IC50(0′)) of each ligand as an antagonist was derived from the full concentration-effect curves.

[4] = target: rat α3β4 nAChRs (Rattus norvegicus (Rat), UniProt P04757+P12392); experiment: 86Rb+ efflux assay (activation and desensitization), α3β4; assay type: cell-based; conditions: for Emax: read-out: Emax α3β4 nAChRs
Method: as §5, §2, §6, §7

[5] = target: α7 nAChR (Rattus norvegicus (Rat), UniProt Q05941); assay type: binding
Method: as §1, §2, §3, §4

[6] = system: ferrets; experiment: Emesis studies in ferrets; assay type: in vivo, ferret (Mustela putorius furo); conditions: 0.5 mg/kg s.c.
Method: Emetic Effects of Compound (S)-15 (YL-1-127) in Ferrets. Effects of (S)-15 in causing nausea and emesis were assessed in a ferret model. For comparison, varenicline was also tested. […] In general, all animals remained alert and active with periods of inactivity that mirrored their baseline behavior within the 1 hr observation period.
In one animal, this behavior was accompanied by oral stereotypy (licking), whereas in two animals it was interspersed by episodes of backward walking. On the average, these behaviors manifested around ˜2.20 min. […] Occasionally, when animals tried to ambulate they would immediately cease their movement after each attempt. This would be followed by a momentary increase in breathing, giving the impression that the animal was in distress.
General Procedures for Emesis Studies in Ferrets. Studies were undertaken in male ferrets (Mustela putorius furo) weighing 0.9-1.5 kg (Marshall Farms, N.Y.). They were housed in controlled conditions of room temperature (22° C.) and light (12:12 h light-dark cycle) with free access to food and water. Prior to each experiment, food was withheld overnight, whereas water was provided ad libitum.
Emetic testing consisted of placing animals individually in a polycarbonate enclosure. Following a 30 min acclimation period, each animal randomly received a subcutaneus injection of varencline or compound (S)-15 (YL-1-127) in the subscapular region. A 60 min observation and video recording followed the drug administration. […] All drugs were dissolved in sterile saline.
Video analysis of the incidence of emesis, stereotypical behaviors (such as licking, mouth-clawing, backward walking, gagging, and burying of the head in cage) and GI side effects (diarrhea) was done off-line. Stereotypical behaviors are thought to be reflective of a subjective sensation of nausea. The emetic index of a drug was calculated as the […] of animals displaying emesis (one or more times in 60 min) divided by the total number of animals tested. An emetic episode was defined as the forceful oral expulsion of liquid or solid upper gastrointestinal contents that is temporally separated from another by at least 30 s.
The Nausea Index for the stereotypical behaviors was derived from the mean±SEM number of nausea behaviors observed among all animals in a given treatment group. Significance was determined at p<0.05.

[7] = agonist efficacy normalized to Emax of nicotine, ND = no significant stimulated efflux detected
[8] = 10 min pre-incubation before 100 μM nicotine, Table 2, read-out: IC50(10′) α4β2 nAChRs
[9] = read-out: IC50(10′) α3β4 nAChRs
[10] = ND = no significant stimulated efflux detected
[11] = 10 min pre-treatment, Table 3 (Example 4), read-out: IC50(10′) α4β2
[12] = Table 1, mean of 3 to 5 measurements

Row | SMILES | Ki ([1]; Table 3 (Example 4)) | Ki ([2]; Table 3 (Example 4)) | IC50 [3, 8] | IC50 [4, 9] | Ki ([5]; Table 3 (Example 4)) | Emax [4] | Ki Ratio α3β4/α4β2 [1] | Ki Ratio α7/α4β2 [1] | EC50 [3, 10] | Emax [3, 7] | IC50 [3, 11] | Ki [1, 12] | Ki [2, 12] | other results
1 | CCCCC#Cc1cnc(C)c(OC[C@@H]2CCCN2)c1 [(S)-16, (S)-5-(hex-1-ynyl)-2-methyl-3-(pyrrolidin-2-ylmethoxy)pyridine] | 73 nM | 94000 nM | 1600 nM | 6400 nM | 81000 nM |  |  |  |  |  |  |  |  | Emax α4β2 nAChRs [3, 7]: didn't show detectable agonist activity
2 | c1cnc2cc3c(cc2n1)[C@@H]1CNC[C@H]3C1 [Varenicline] |  |  |  |  |  | 90% |  |  |  |  |  |  |  | gagging (retching), mean # of episodes [6]: 2.80 ± 1.63; time post-injection at which locomotor behavior was noticeably reduced [6]: ~1.05 min; emetic episodes ([6]; 1 hr observation): no emetic episodes were observed; time at which nausea behaviors manifested ([6]; average): ~2.20 min; animals with drug induced nausea (gagging) ([6]; animals affected/tested): 4/5
3 | OCCCCC#Cc1cncc(OC[C@@H]2CCN2)c1 [Sazetidine-A, reference compound] | 0.062 nM | 1900 nM | 12 nM | > 10000 nM | 1600 nM | 17% | 31,000 | 11,000 | 24 nM | 40% | 7.5 nM |  |  | EC50 ([4]; agonist activity, ND = no significant stimulated efflux detected): 24000 nM; IC50 ([4]; desensitization, 10 min pre-treatment, Table 3 (Example 4), read-out: IC50(10′) α3β4): > 10000 nM
4 | CCCCC#Cc1cnc(C)c(OC[C@H]2CCN2)c1 [(R)-15, (R)-3-(azetidin-2-ylmethoxy)-5-(hex-1-ynyl)-2-methylpyridine] |  |  |  |  | 120000 nM |  | 270 | 220 |  |  |  | 740 nM | 200000 nM | Ki [5, 12]: 160000 nM
5 | Cc1ncc(C#CC2CC2)cc1OC[C@@H]1CCN1 [(S)-27, (S)-3-(azetidin-2-ylmethoxy)-5-(cyclopropylethynyl)-2-methylpyridine] |  | 150000 nM | 110 nM | > 10000 nM | 150000 nM |  | 16,000 | 16,000 | 160 nM | < 20% | 11 nM | 9.6 nM | 150000 nM | IC50 ([4]; read-out: IC50(10′) α3β4): 36000 nM
